The structures appear in SMILES notation.

Consider one compound from ChEMBL document CHEMBL4507261, “Data for DCP probe A-192621” (2021).

Test [1] concerns the target T1, Endothelin-1 receptor (Homo sapiens, UniProt P25101).
T1 sequence (P25101 whole entry): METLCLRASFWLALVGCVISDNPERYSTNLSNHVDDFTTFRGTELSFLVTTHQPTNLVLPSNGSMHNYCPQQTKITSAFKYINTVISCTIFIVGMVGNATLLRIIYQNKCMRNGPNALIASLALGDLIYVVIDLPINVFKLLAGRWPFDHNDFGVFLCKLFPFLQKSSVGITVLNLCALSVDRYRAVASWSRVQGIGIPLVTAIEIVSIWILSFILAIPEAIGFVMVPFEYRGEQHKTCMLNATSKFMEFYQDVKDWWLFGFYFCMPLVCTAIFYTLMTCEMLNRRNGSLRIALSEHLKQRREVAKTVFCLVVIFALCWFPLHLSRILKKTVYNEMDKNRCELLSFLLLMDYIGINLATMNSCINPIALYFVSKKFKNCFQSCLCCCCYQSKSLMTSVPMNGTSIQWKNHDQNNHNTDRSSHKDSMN
Put plainly: EDNRA- dependent phosphatidylinositol hydrolysis assay. It is filed as functional.

Test [2] deals with 5-hydroxytryptamine receptor 1B (Homo sapiens) (UniProt P28222). As to conditions: Compound concentration 10.0 uM; call rule not given here.
Test [3] deals with 5-hydroxytryptamine receptor 1D (Homo sapiens) (UniProt P28221). Conditions: Compound concentration 10.0 uM.
Test [4] addresses T2, 5-hydroxytryptamine receptor 2C (Homo sapiens) (UniProt P28335).
T2 sequence (whole entry): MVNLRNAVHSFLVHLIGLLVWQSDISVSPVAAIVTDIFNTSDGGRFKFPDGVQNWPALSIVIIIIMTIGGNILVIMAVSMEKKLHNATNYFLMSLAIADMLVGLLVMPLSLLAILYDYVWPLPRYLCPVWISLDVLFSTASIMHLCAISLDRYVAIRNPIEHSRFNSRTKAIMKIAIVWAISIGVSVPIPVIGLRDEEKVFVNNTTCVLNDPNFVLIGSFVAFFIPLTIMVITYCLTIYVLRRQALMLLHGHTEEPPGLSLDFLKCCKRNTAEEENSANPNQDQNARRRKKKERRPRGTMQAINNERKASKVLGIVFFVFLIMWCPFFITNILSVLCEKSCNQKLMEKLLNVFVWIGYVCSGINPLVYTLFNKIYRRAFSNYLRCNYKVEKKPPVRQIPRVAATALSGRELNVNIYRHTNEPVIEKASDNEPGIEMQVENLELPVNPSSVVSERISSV
Conditions: Compound concentration 10.0 uM.

Test [5] deals with 5-hydroxytryptamine receptor 7 (Homo sapiens) (UniProt P34969). Conditions: Compound concentration 10.0 uM.
For test [6], the target named is D(1B) dopamine receptor (Homo sapiens) (UniProt P21918). Conditions: Compound concentration 10.0 uM.
Test [7] deals with Sodium-dependent serotonin transporter (Homo sapiens) (UniProt P31645). As to conditions: Compound concentration 10.0 uM.
For test [8], the target named is GABA-A receptor; anion channel (Rattus norvegicus) (UniProt O09028+P15431+P18506+P18508+P19969+P20236+P23574+P23576+P28471+P28473+P30191+P62813+P63079+P63138+Q91ZM7+Q9ES14). As to conditions: Compound concentration 10.0 uM.
For test [9], the target named is Histamine H2 receptor (Homo sapiens) (UniProt P25021). Conditions: Compound concentration 10.0 uM.
In test [10] the target is Histamine H4 receptor (Homo sapiens) (UniProt Q9H3N8). Conditions: Compound concentration 10.0 uM.
For test [11], the target named is T3, Alpha-1A adrenergic receptor (Homo sapiens) (UniProt P35348).
T3 sequence (whole entry): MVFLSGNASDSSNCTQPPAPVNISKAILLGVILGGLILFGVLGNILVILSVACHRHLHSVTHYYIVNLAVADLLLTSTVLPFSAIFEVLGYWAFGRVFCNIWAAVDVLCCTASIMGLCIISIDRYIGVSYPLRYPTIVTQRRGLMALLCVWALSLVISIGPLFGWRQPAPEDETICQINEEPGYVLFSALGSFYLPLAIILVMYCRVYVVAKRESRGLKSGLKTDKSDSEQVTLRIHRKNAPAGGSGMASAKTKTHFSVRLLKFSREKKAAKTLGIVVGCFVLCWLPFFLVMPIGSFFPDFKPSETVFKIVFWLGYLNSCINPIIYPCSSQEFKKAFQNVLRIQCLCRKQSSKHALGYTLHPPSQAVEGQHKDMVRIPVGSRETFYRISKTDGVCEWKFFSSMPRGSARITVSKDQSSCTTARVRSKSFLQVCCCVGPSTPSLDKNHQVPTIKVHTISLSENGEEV
As to conditions: Compound concentration 10.0 uM.

In test [12] the target is T4, Alpha-2A adrenergic receptor (Homo sapiens) (UniProt P08913).
T4 sequence (whole entry): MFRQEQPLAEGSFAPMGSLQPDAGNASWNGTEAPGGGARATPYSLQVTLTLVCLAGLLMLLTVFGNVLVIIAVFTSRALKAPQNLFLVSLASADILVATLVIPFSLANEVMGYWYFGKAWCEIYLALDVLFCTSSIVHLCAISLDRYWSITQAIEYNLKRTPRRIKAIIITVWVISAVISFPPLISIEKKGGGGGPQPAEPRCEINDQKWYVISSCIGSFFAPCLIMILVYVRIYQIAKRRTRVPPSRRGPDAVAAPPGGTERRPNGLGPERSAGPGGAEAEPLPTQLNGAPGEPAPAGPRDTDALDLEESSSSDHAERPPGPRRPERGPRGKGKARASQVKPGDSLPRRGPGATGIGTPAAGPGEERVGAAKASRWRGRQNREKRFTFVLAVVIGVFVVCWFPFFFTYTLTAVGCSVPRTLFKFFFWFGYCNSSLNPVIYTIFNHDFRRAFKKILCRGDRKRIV
Conditions: Compound concentration 10.0 uM.

Test [13] addresses T5, Muscarinic acetylcholine receptor M2 (Homo sapiens) (UniProt P08172).
T5 sequence (whole entry): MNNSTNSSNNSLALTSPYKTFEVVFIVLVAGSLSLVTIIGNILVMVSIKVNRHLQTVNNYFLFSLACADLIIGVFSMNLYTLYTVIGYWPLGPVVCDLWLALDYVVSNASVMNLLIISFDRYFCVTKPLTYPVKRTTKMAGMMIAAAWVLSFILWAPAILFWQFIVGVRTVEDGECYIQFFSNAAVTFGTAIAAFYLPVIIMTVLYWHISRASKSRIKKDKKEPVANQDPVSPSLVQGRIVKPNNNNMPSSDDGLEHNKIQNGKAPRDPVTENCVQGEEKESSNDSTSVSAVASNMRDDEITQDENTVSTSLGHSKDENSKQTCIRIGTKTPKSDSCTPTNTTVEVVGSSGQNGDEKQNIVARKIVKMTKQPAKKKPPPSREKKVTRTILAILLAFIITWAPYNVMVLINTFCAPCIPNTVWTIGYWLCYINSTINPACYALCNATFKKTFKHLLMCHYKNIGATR
As to conditions: Compound concentration 10.0 uM.

Test [14] has as its target Sigma intracellular receptor 2 (Homo sapiens) (UniProt Q5BJF2). Conditions: Compound concentration 10.0 uM.

D(1B) dopamine receptor (Homo sapiens), sequence (P21918 whole entry): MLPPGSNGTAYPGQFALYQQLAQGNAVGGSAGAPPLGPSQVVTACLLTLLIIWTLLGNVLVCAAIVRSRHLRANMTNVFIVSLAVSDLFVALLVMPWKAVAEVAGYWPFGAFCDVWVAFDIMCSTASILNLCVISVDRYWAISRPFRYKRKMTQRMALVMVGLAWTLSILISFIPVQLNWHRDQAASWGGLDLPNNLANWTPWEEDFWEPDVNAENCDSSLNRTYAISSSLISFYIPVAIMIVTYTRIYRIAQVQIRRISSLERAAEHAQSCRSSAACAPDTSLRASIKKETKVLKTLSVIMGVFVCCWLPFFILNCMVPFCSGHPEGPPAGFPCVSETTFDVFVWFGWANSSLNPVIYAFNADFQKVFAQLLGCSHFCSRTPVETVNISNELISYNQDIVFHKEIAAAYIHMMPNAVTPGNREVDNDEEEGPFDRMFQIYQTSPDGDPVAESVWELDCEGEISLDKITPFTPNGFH
5-hydroxytryptamine receptor 1D (Homo sapiens), sequence (P28221 whole entry): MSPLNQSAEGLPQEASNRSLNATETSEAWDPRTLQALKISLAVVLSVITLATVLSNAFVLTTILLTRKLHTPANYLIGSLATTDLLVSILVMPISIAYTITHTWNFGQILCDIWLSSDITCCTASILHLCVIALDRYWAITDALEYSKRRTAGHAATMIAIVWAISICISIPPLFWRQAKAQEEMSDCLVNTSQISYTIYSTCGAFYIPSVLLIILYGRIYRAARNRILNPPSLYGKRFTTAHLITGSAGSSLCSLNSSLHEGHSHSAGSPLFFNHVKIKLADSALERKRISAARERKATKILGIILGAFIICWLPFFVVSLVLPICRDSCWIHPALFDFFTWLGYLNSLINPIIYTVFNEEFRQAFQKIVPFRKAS
5-hydroxytryptamine receptor 1B (Homo sapiens), sequence (P28222 whole entry): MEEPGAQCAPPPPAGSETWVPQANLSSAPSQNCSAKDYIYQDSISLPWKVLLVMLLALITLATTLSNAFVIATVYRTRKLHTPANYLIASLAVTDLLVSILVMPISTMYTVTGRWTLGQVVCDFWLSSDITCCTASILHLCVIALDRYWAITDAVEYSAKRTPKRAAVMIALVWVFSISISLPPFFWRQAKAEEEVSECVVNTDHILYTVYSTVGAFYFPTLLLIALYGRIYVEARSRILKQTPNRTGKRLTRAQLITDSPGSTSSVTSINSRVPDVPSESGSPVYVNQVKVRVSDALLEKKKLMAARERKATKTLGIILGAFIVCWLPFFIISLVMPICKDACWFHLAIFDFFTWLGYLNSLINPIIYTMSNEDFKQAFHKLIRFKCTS
Histamine H4 receptor (Homo sapiens), sequence (Q9H3N8 whole entry): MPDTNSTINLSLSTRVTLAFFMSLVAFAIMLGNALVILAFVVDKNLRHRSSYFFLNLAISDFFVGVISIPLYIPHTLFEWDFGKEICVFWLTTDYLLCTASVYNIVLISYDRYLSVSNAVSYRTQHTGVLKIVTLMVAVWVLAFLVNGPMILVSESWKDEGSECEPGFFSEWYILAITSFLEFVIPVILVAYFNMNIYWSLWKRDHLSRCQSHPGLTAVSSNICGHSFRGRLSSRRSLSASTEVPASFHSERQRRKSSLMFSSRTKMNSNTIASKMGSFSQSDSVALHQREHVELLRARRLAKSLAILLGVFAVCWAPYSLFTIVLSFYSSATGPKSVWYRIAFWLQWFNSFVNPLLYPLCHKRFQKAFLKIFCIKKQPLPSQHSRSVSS
Histamine H2 receptor (Homo sapiens), sequence (P25021 whole entry): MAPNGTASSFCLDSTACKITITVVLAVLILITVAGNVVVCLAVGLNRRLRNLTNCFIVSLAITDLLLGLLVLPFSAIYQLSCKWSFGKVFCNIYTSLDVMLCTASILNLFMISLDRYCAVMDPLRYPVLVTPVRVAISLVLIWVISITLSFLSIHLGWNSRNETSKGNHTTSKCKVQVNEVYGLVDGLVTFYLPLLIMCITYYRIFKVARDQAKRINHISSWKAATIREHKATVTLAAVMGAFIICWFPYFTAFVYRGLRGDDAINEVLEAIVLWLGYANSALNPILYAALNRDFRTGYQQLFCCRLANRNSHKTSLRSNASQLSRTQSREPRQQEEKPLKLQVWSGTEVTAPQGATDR
5-hydroxytryptamine receptor 7 (Homo sapiens), sequence (P34969 whole entry): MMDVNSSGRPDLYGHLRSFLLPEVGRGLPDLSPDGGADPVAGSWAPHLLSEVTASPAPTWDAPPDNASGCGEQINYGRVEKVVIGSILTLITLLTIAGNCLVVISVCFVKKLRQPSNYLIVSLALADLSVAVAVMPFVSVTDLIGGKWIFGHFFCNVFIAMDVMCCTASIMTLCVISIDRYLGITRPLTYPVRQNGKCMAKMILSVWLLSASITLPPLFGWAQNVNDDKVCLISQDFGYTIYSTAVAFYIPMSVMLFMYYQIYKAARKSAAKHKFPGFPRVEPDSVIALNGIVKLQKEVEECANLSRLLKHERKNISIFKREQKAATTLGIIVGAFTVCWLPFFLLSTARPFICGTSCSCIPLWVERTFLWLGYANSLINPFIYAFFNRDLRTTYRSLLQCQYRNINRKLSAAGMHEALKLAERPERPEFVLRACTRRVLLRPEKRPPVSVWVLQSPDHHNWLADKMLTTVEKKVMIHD
Sodium-dependent serotonin transporter (Homo sapiens), sequence (P31645 whole entry, looked up): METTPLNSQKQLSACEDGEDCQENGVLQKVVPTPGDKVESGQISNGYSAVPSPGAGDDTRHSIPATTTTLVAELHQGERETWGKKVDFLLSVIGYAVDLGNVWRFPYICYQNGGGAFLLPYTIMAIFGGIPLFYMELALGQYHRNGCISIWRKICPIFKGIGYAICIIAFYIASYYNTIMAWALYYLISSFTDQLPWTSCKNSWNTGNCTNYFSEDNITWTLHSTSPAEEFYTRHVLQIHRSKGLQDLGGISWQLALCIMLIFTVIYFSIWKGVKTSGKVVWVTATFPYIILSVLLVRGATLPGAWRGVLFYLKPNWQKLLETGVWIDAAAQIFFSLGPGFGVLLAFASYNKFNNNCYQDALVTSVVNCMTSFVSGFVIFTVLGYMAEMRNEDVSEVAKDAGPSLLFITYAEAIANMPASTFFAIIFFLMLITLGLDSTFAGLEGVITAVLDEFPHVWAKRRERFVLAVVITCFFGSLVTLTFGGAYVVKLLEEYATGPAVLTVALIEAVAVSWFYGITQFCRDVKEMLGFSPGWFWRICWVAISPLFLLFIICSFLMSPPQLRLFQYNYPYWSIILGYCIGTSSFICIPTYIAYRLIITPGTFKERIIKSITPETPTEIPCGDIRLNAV
Sigma intracellular receptor 2 (Homo sapiens), sequence (Q5BJF2 whole entry): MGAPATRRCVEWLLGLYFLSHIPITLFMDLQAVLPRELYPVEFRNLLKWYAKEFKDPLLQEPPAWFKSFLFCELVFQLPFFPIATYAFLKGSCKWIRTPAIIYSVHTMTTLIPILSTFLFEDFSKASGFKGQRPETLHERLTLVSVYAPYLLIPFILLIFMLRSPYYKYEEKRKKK

Turning to `CCCOc1ccc([C@H]2[C@H](C(=O)O)[C@@H](c3ccc4c(c3)OCO4)CN2CC(=O)Nc2c(CC)cccc2CC)cc1` [A-192621], in test [1], the IC50 was > 1000 nM (not active). Also, the inhibition in test [2] is 4.31%; in test [3], -3.09%; in test [4], -5.44%; in [5], -3.72%; in [6], 11%; in test [7], 10.6%. In addition, the inhibition in test [8] is 19.6%; in [9], 5.77%; in test [10], 7.94%; in test [11], -9.09%; in test [12], 9.55%; in test [13] it was -5.3%. For the same compound, the inhibition in [14] was -7.1%.

By IC50 is commonly meant the concentration needed to halve the response being measured. In general, inhibition refers to the relative decrease from the control value, in per cent.
